One block for each molecule: values may come before it.
Test system: K98450-129-R-PDC multicell spheroids, viability
Assay: Anticancer human tumor K98450-129-R-PDC patient-derived colon adenocarcinoma cell line growth inhibition [PI3K]
Details: for IC50: curve of first compound; for viability, T/C: stronger effect = lower value
Text: Combinatorial screen of targeted agents with the PI3K inhibitors inavolisib, alpelisib, duvelisib, and copanlisib in multi-cell type tumor spheroids
A high-throughput screen of multi-cell type tumor spheroids was designed to identify active combinations of targeted small molecules and PI3K pathway inhibitors. Complex spheroids include a stromal component modeled by human endothelial cells (HUVEC) and fibroblasts modeled by human mesenchymal stem cells (MSCs). The concentration ranges selected for each drug and investigational agent were based upon clinically achievable concentrations if the clinical Cmax of the agent was known.
Compounds. The drugs and investigational agents: inavolisib (NSC800729), alpelisib (NSC765974), duvelisib (NSC772469), copanlisib (NSC816437), ipatasertib (NSC767898), afuresertib (NSC778305), talazoparib (NSC767125), sapanisertib (NSC764658), selumetinib (NSC741078), tovorafenib (DAY101, NSC766906), vemurafenib (NSC761431), ravoxertinib (NSC781343), sotorasib (NSC818433), MRTX1133 (NSC 836407), abemaciclib (NSC 768073), palbociclib (NSC758247), venetoclax (NSC 766270), SY5609 (NSC837396), enzalutamide (NSC755605), and darolutamide (NSC825331), were obtained from the National Cancer Institute (NCI) Developmental Therapeutics Program Chemical Repository. The FDA-approved anticancer drug set is available from the NCI Developmental Therapeutics Program. […] The stock solutions were prepared in dimethyl sulfoxide (DMSO, Sigma-Aldrich, St. Louis, MO, cat. D2650) at 800-fold the tested concentration and stored at -70 degrees C prior to their use. All drugs and investigational agents were tested over a range starting from a high concentration at or near the clinical Cmax and decreasing in half-log increments. If the clinical Cmax for an agent had not been determined, the highest concentration tested was 10 microM.
Cell Culture. All cells were maintained in an incubator at 37 degrees C and 5% CO2 with 95% humidity. The PDC lines were cultured according to standard operating procedures established by the NCI PDMR (https://pdmr.cancer.gov/sops/default.htm). All PDCs were thawed and cultured in Matrigel-coated flasks prepared with a working solution of 1X Ham's F-12 nutrient mix, without supplementation (Invitrogen, Waltham, MA, cat. 11765054), 100 U/mL penicillin-streptomycin (Invitrogen, cat. 15140122), and 2.5% Matrigel (Corning Inc., Corning, NY, cat. 354248) for the first three passages. The 354836-022-R-J1-PDC, 475296-252-R-J1-PDC, and 997726-040-R-J2-PDC lines were cultured in 6A media, which includes advanced DMEM/F-12 (Thermo Fisher Scientific, cat. 12634028), 10 mM HEPES (Thermo Fisher Scientific, cat. 15630080), 1X GlutaMAX supplement (Thermo Fisher Scientific, cat. 35050061), 0.1 mg/mL primocin (InvivoGen, San Diego, CA, cat. ant-pm-2), 10% defined fetal bovine serum, heat inactivated (HyClone Laboratories Inc., Logan, UT, cat. SH30070.03HI), 50% L-WRN conditioned media (ATCC, cat. CRL-3276), 1.25 mM N-Acetyl-L-cysteine (Sigma-Aldrich, cat. A9165), 10 mM nicotinamide (Sigma-Aldrich, cat. N0636), 1X B-27 supplement (Thermo Fisher Scientific, cat. 17504044), 1X N-2 supplement (Thermo Fisher Scientific, cat. 17502048), and 10 microM Y-27632 dihydrochloride (Tocris Bioscience, Bristol, United Kingdom, cat. 1254). The 624824-186-R-J2-PDC line was cultured in 6C/Colon 1B media, which includes all 6A media components plus 50 ng/mL human EGF recombinant protein (Thermo Fisher Scientific, cat. PHG0311). […]

[1] = second compound 0.00316 µM, first compound 0.0316 µM
[2] = second compound 0.00316 µM, first compound 0.1 µM
[3] = second compound 0.00316 µM, first compound 0.316 µM
[4] = second compound 0.00316 µM, first compound 1 µM
[5] = second compound 0.01 µM, first compound 0.0316 µM
[6] = second compound 0.01 µM, first compound 0.1 µM
[7] = second compound 0.01 µM, first compound 0.316 µM
[8] = second compound 0.01 µM, first compound 1 µM
[9] = second compound 0.0316 µM, first compound 0.0316 µM
[10] = second compound 0.0316 µM, first compound 0.1 µM
[11] = second compound 0.0316 µM, first compound 0.316 µM
[12] = second compound 0.0316 µM, first compound 1 µM
[13] = second compound 0.1 µM, first compound 0.0316 µM
[14] = second compound 0.1 µM, first compound 0.1 µM
[15] = second compound 0.1 µM, first compound 0.316 µM
[16] = second compound 0.1 µM, first compound 1 µM
[17] = second compound 0.316 µM, first compound 0.0316 µM
[18] = second compound 0.316 µM, first compound 0.1 µM
[19] = second compound 0.316 µM, first compound 0.316 µM
[20] = second compound 0.316 µM, first compound 1 µM
[21] = second compound 1 µM, first compound 0.0316 µM
[22] = second compound 1 µM, first compound 0.1 µM
[23] = second compound 1 µM, first compound 0.316 µM
[24] = second compound 1 µM, first compound 1 µM
[25] = second compound 0.00316 µM, first compound 0.00316 µM
[26] = second compound 0.00316 µM, first compound 0.01 µM
[27] = second compound 0.01 µM, first compound 0.00316 µM
[28] = second compound 0.01 µM, first compound 0.01 µM
[29] = second compound 0.0316 µM, first compound 0.00316 µM
[30] = second compound 0.0316 µM, first compound 0.01 µM
[31] = second compound 0.1 µM, first compound 0.00316 µM
[32] = second compound 0.1 µM, first compound 0.01 µM
[33] = second compound 0.316 µM, first compound 0.00316 µM
[34] = second compound 0.316 µM, first compound 0.01 µM
[35] = second compound 1 µM, first compound 0.00316 µM
[36] = second compound 1 µM, first compound 0.01 µM
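Also: spheroids exposed to agents for seven days before read-out.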

IC50 (second compound 0.00316 µM): > 10 µM
IC50 (second compound 0.01 µM): > 10 µM
IC50 (second compound 0.0316 µM): > 10 µM
IC50 (second compound 0.1 µM): > 10 µM
IC50 (second compound 0.316 µM): > 10 µM
IC50 (second compound 1 µM): > 10 µM
Compound: CC(C)NCC(C(=O)N1CCN(c2ncnc3c2C(C)CC3O)CC1)c1ccc(Cl)cc1 (stereo unspecified) + CC(Nc1ccc2c(c1)OCCn1cc(N3C(=O)OCC3C(F)F)nc1-2)C(N)=O
viability, T/C [1]: 111%
viability, T/C [2]: 98%
viability, T/C [3]: 101%
viability, T/C [4]: 101%
viability, T/C (second compound 0.00316 µM, first compound 3.16 µM): 109%
viability, T/C (second compound 0.00316 µM, first compound 10 µM): 98.4%
viability, T/C [5]: 115%
viability, T/C [6]: 96.1%
viability, T/C [7]: 105%
viability, T/C [8]: 98.1%
viability, T/C (second compound 0.01 µM, first compound 3.16 µM): 104%
viability, T/C (second compound 0.01 µM, first compound 10 µM): 102%
viability, T/C [9]: 109%
viability, T/C [10]: 104%
viability, T/C [11]: 98.9%
viability, T/C [12]: 101%
viability, T/C (second compound 0.0316 µM, first compound 3.16 µM): 109%
viability, T/C (second compound 0.0316 µM, first compound 10 µM): 96.9%
viability, T/C [13]: 96.2%
viability, T/C [14]: 91.7%
viability, T/C [15]: 101%
viability, T/C [16]: 102%
viability, T/C (second compound 0.1 µM, first compound 3.16 µM): 101%
viability, T/C (second compound 0.1 µM, first compound 10 µM): 96.2%
viability, T/C [17]: 91%
viability, T/C [18]: 90.5%
viability, T/C [19]: 100%
viability, T/C [20]: 99.2%
viability, T/C (second compound 0.316 µM, first compound 3.16 µM): 111%
viability, T/C (second compound 0.316 µM, first compound 10 µM): 94.2%
viability, T/C [21]: 85.2%
viability, T/C [22]: 85.4%
viability, T/C [23]: 96.8%
viability, T/C [24]: 94.1%
viability, T/C (second compound 1 µM, first compound 3.16 µM): 100%
viability, T/C (second compound 1 µM, first compound 10 µM): 95.2%

IC50 (second compound 0.00316 µM): > 1 µM
IC50 (second compound 0.01 µM): > 1 µM
IC50 (second compound 0.0316 µM): > 1 µM
IC50 (second compound 0.1 µM): > 1 µM
IC50 (second compound 0.316 µM): > 1 µM
IC50 (second compound 1 µM): > 1 µM
Compound: CCN1CCN(Cc2ccc(Nc3ncc(F)c(-c4cc(F)c5nc(C)n(C(C)C)c5c4)n3)nc2)CC1 + CC(Nc1ccc2c(c1)OCCn1cc(N3C(=O)OCC3C(F)F)nc1-2)C(N)=O
viability, T/C [25]: 105%
viability, T/C [26]: 92.2%
viability, T/C [1]: 104%
viability, T/C [2]: 90.3%
viability, T/C [3]: 81%
viability, T/C [4]: 82.9%
viability, T/C [27]: 117%
viability, T/C [28]: 90.5%
viability, T/C [5]: 98.7%
viability, T/C [6]: 92.3%
viability, T/C [7]: 84.9%
viability, T/C [8]: 86.9%
viability, T/C [29]: 109%
viability, T/C [30]: 100%
viability, T/C [9]: 93.8%
viability, T/C [10]: 89.9%
viability, T/C [11]: 94.5%
viability, T/C [12]: 92.6%
viability, T/C [31]: 92.9%
viability, T/C [32]: 96.8%
viability, T/C [13]: 97.4%
viability, T/C [14]: 85.5%
viability, T/C [15]: 83.7%
viability, T/C [16]: 82.8%
viability, T/C [33]: 90.6%
viability, T/C [34]: 98.3%
viability, T/C [17]: 95.7%
viability, T/C [18]: 86.5%
viability, T/C [19]: 85.4%
viability, T/C [20]: 79.3%
viability, T/C [35]: 90.5%
viability, T/C [36]: 88%
viability, T/C [21]: 86.8%
viability, T/C [22]: 82.3%
viability, T/C [23]: 83.9%
viability, T/C [24]: 81.6%

IC50 (second compound 0.00316 µM): > 0.1 µM
IC50 (second compound 0.01 µM): > 0.1 µM
IC50 (second compound 0.0316 µM): > 0.1 µM
IC50 (second compound 0.1 µM): > 0.1 µM
IC50 (second compound 0.316 µM): > 0.1 µM
IC50 (second compound 1 µM): > 0.1 µM
Compound: Cn1ncnc1[C@H]1c2n[nH]c(=O)c3cc(F)cc(c23)N[C@@H]1c1ccc(F)cc1 + CC(Nc1ccc2c(c1)OCCn1cc(N3C(=O)OCC3C(F)F)nc1-2)C(N)=O
viability, T/C (second compound 0.00316 µM, first compound 0.000316 µM): 112%
viability, T/C (second compound 0.00316 µM, first compound 0.001 µM): 92.8%
viability, T/C [25]: 100%
viability, T/C [26]: 96.5%
viability, T/C [1]: 102%
viability, T/C [2]: 95.4%
viability, T/C (second compound 0.01 µM, first compound 0.000316 µM): 114%
viability, T/C (second compound 0.01 µM, first compound 0.001 µM): 92.8%
viability, T/C [27]: 99.2%
viability, T/C [28]: 93.8%
viability, T/C [5]: 95.9%
viability, T/C [6]: 94.3%
viability, T/C (second compound 0.0316 µM, first compound 0.000316 µM): 104%
viability, T/C (second compound 0.0316 µM, first compound 0.001 µM): 99%
viability, T/C [29]: 89.3%
viability, T/C [30]: 100%
viability, T/C [9]: 98.5%
viability, T/C [10]: 96.9%
viability, T/C (second compound 0.1 µM, first compound 0.000316 µM): 92%
viability, T/C (second compound 0.1 µM, first compound 0.001 µM): 100%
viability, T/C [31]: 99%
viability, T/C [32]: 95.1%
viability, T/C [13]: 104%
viability, T/C [14]: 89.8%
viability, T/C (second compound 0.316 µM, first compound 0.000316 µM): 90.6%
viability, T/C (second compound 0.316 µM, first compound 0.001 µM): 89.5%
viability, T/C [33]: 96%
viability, T/C [34]: 91.6%
viability, T/C [17]: 100%
viability, T/C [18]: 92.6%
viability, T/C (second compound 1 µM, first compound 0.000316 µM): 88.4%
viability, T/C (second compound 1 µM, first compound 0.001 µM): 92.2%
viability, T/C [35]: 88.8%
viability, T/C [36]: 88.6%
viability, T/C [21]: 93.6%
viability, T/C [22]: 86.9%
